Assay results taken from patent publication US20060258717A1, “ORGANIC COMPOUNDS” (priority 2004, published 2006).
Like-named read-outs stand apart in the source and are kept apart here.

Tested on: human umbilical vein endothelial cells (HUVECs)
Conditions: for number of tubes (capillary networking) versus control: 24 hours, HUVECs on growth factor-reduced Matrigel, 8 wells, five random fields per well
Procedure: Various concentrations of compound A (0.1, 1, and 10 μM) are tested to assess the quality of effect of this compound on capillary networking (tube formation) in cultured human umbilical vein endothelial cells (HUVECs) seeded on growth factor-reduced Matrigel. The intensity of capillary networking is evaluated at 24 hours using a phase-contrast microscope. Images are captured and analySYS 3.2 software is used to count the number of tubes in five random fields of each well (8 wells altogether). The effect of the compound is compared to untreated cells grown in cell culture medium (control).

For `Cc1nccn1Cc1ccccn1` [Compound A, [2-(2-methylimidazol-1-yl)methyl]pyridine], the “number of tubes (capillary networking) versus control” value (1 μM compound) was “significantly decreases the number of tubes”, the “number of tubes (capillary networking) versus control” value (10 μM compound) was “significantly decreases the number of tubes” and the “cell toxicity (ToxiLight, ATP release from damaged cells)” value (additional study, concentrations not given) was “not related to cell toxicity”.
